In patent US9005581B2, “Modified pyrazine derivatives and uses thereof” (MediBeacon, LLC, priority 2008, dated 2015):
Marks after values point to notes of the source that are not given here.

Assays:
[1] = Photophysical properties (fluorescence excitation/emission in PBS); assay type: physicochemical; conditions: 10 μM solution in PBS
Method: In general, renally excretable compounds are dissolved in PBS buffer to form a 2 mM stock solution. The UV absorbance properties are determined on a 100 μM solution in PBS using a UV-3101PC UV-Vis-NIR Scanning spectrophotometer system from Shimadzu. The fluorescence properties (λex, λem, and CPS at λem) are determined on a 10 μM solution in PBS using a Fluorolog-3 spectrofluorometer system from Jobin Yvon Horiba. The percent plasma protein binding is determined on a 20 μM compound solution in rat plasma incubated at 37° C. for 1 h. The separation of free from bound is made using an Amicon Centrifree YM-30 device (Regenerated Cellulose 30,000 MWCO) and a Z400K Refrigerated Universal Centrifuge from Hermle. The concentration of protein-free is determined via HPLC analysis using a set of external calibration standards and fluorescence detection.

[2] = Urine elimination studies; assay type: in vivo, Sprague-Dawley rats; conditions: rat, 1 mL of 2 mM in PBS by tail vein injection, mean ± SEM (n)
Method: Rat urine elimination studies are conducted in either conscious or anesthetized Sprague-Dawley rats. The test compound (1 mL, 2 mM in PBS) is administered by tail vein injection into conscious, restrained rats, with subsequent collection of urine at the time points of 2, 4 and 6 h post injection. The metabolic cages are washed with water to maximize the recovery of urine discharged at each time point. Alternatively, rats are anesthetized with 100 mg/kg Inactin intraperitoneally, a trachea tube is inserted to maintain adequate respiration, and 1 mL of test compound is injected into the lateral tail vein. Rats are placed on 37° C. heating pad during the entire experiment. At 6 h post injection, the abdomen is opened, and the urine is removed from the bladder using a 21 gauge needle and a 3 cc syringe. Quantitation of each compound in urine is performed via HPLC analysis using a set of external calibration standards and fluorescence detection. The percent recovery of compound in urine at each time point is calculated based on the balance of mass.

[3] = Invasive pharmacokinetic studies (plasma concentration); assay type: in vivo, Sprague-Dawley rats; conditions: rat plasma, 1 mL of 2 mM solution i.v., mean ± SEM (n)
Method: (§1) Male Sprague-Dawley rats (330-380 g) are anesthetized by Inactin (I.P.). Rats are surgically instrumented with a trachea tube (PE-190) to facilitate breathing and femoral artery and vein catheters (PE-50 filled with 20 units/mL heparinized saline) for blood sampling and drug administration respectively. After administration of 1 mL of a 2 mM solution of agent, approximately 200 μL blood is sampled and placed into a heparinized tube (Microtainer Brand Tube w/Lithium Heparin, BD 365971) at 0, 1, 6, 12, 18, 30, 45, 60, 90, 120 min. The concentration of compound in each centrifuged plasma sample is determined via HPLC analysis using a set of external calibration standards and fluorescence detection. The resulting pharmacokinetic parameters of the compound are analyzed using WinNonLin pharmacokinetic modeling software (Pharsight, Mountain View, Calif.). This method is used to detect renally excretable compounds of the invention and FIG. 8B provides a plot illustrating invasive PK (plasma concentration) as a function of time following delivery of a renally excretable compound.

[4] = Non-invasive optical pharmacokinetic studies (fluorescence at the ear); assay type: in vivo, Sprague-Dawley rats; conditions: rat ear fluorescence, 1 mL of 2 mM solution into tail vein; mean ± SEM (n)
Method: Male Sprague-Dawley rats (330-380 g) are anesthetized by Inactin (I.P.) or 2% Isoflurane gas anesthesia delivered by a small rodent gas anesthesia machine (RC2, Vetequip, Pleasanton, Calif.). The animals are placed on a heated board where temperature is maintained between 36-38° C. One ear lobe is glued flat to a glass slide positioned approximately 2 mm beneath a fiber optic bundle for recording fluorescence from a test compound passing through the ear. After a 100 second baseline recording, 1 mL of a 2 mM solution is injected into the tail-vein of the rat and the fluorescence signal corresponding to plasma and tissue distribution and subsequent renal clearance of the compound is monitored at the ear. The pharmacokinetic parameters of the compounds are analyzed using WinNonLin pharmacokinetic modeling software (Pharsight, Mountain View, Calif.) and Microsoft (Redmond, Wash.) Excel. This method is used to detect renally excretable compounds of the invention and FIG. 8A provides a plot illustrating non-invasive in vivo fluorescence as a function of time following delivery of a renally excretable compound.
A nominal 473 nm solid state laser source (100) is employed (Power Technology model LDCU12/7314). The laser source is directed into one leg (110) of a silica bifurcated fiber optic bundle (120) (Oriel #77565). The common end of this bifurcated bundle (130) is placed approximately 2 mm from the rat ear (140). The second leg of the bifurcated fiber optic bundle (150) is fitted with a collimating beam probe (160) (Oriel #77644). A long pass filter (170) (Semrock LP02-488RS-25) and narrow band interference filter (180) (Semrock FF01-593/40-25) are placed in front of a photomultiplier tube (190) (Hamamatsu photosensor module H7827-011).
A chopper (200) (Stanford Research Systems model SR540) is placed after the laser and before the launch into the bifurcated cable. The output of the photosensor is connected to a lock-in amplifier (210) (Stanford Research Systems model SR830). The lock-in output is digitized (220) (National Instruments NI-USB-6211) and the digitized data is acquired by computer using LabVIEW® data acquisition software (230).

[5] = Probenecid inhibition studies (invasive pharmacokinetics after probenecid); assay type: in vivo, Sprague-Dawley rats; conditions: rat plasma, 70 mg/kg Probenecid 10 min prior to test compound, values in brackets, mean ± SEM (n)
Method: as §1
Six male Sprague-Dawley rats are treated in the same manner as described above in the invasive pharmacokinetic studies. These 6 rats receive 70 mg/kg Probenecid (Sigma-Aldrich; St. Louis, Mo.) 10 min prior to the test compound; this administration is flushed with 0.2 ml NaCl.

COCCOCCOCCOCCOCCOCCOCCOCCOCCOCCOCCOCCCNc1nc(C(=O)NCCOCCOCCOCCOCCOCCOCCOCCOCCOCCOCCOCCOC)c(NCCCOCCOCCOCCOCCOCCOCCOCCOCCOCCOCCOCCOC)nc1C(=O)NCCOCCOCCOCCOCCOCCOCCOCCOCCOCCOCCOCCOC [Compound 1, 3,6-Bis(2,5,8,11,14,17,20,23,26,29,32,35-dodecaoxaoctatriacontan-38-ylamino)-N^2,N^5-di(2,5,8,11,14,17,20,23,26,29,32,35-dodecaoxaheptatriacontan-37-yl)pyrazine-2,5-dicarboxamide]
Photophysical Properties Emission λmax [1]: 605 nm | Photophysical Properties Excitation λmax [1]: 500 nm | Percent found in Urine (6 hrs) [2]: 97 ± 0.4 (3)^b Percent | clearance ([3]; male, Sprague-Dawley, iv, 1 mL of a 2 mM solution, read-out: Pharmacokinetics Clearance): 3.1 ± 0.2 mL/min | Pharmacokinetics T1/2β [3]: 18.8 ± 0.6 (3) min | Tissue Clearance (Optical) T1/2β [4]: 19.9 ± 2.4 (3) min | clearance ([5]; male, Sprague-Dawley, iv, with probenecid 70 mg/kg, 10 min prior to the test compound, read-out: Pharmacokinetics Clearance, probenecid challenge experiment): 3.3 mL/min | Pharmacokinetics T1/2β, probenecid challenge experiment [5]: [18.0 ± 0.3 (3)]^c min
